Test results taken from patent US9693556B2, “Herbicidal pyridazinone derivatives” (SYNGENTA LIMITED, priority 2011, dated 2017).

Tests used:
Assay type in all cases: in vivo
[1] = tested on: Echinochloa crus-galli (ECHCG); experiment: Pre-emergence herbicidal glasshouse test on Echinochloa crus-galli; conditions: pre-emergence; 1000 g/h; evaluated after 13 days
Method in brief: (§1)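 Scoring scale: 5=80-100%, 4=60-79%, 3=40-59%, 2=20-39%, 1=0-19% damage, assessed on day 13. Compound sprayed at 1000 g/h on soil-grown plants (day 1 pre-, day 8 post-emergence) kept at 24/16 °C, 14 h light.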

[2] = tested on: Setaria faberi (SETFA); experiment: Pre-emergence herbicidal glasshouse test on Setaria faberi; conditions: pre-emergence; 1000 g/h; evaluated after 13 days
Method in brief: as §1

[3] = tested on: Alopecurus myosuroides (ALOMY); experiment: Post-emergence herbicidal glasshouse test on Alopecurus myosuroides; conditions: post-emergence; 1000 g/h; evaluated after 13 days
Method in brief: as §1

[4] = tested on: Setaria faberi (SETFA); experiment: Post-emergence herbicidal glasshouse test on Setaria faberi; conditions: post-emergence; 1000 g/h; evaluated after 13 days
Method in brief: as §1

[5] = tested on: Amaranthus retoflexus (AMARE); experiment: Pre-emergence herbicidal glasshouse test on Amaranthus retoflexus; conditions: pre-emergence; 1000 g/h; evaluated after 13 days
Method in brief: as §1

[6] = tested on: Ipomoea hederacea (IPOHE); experiment: Pre-emergence herbicidal glasshouse test on Ipomoea hederacea; conditions: pre-emergence; 1000 g/h; evaluated after 13 days
Method in brief: as §1

[7] = tested on: Amaranthus retoflexus (AMARE); experiment: Post-emergence herbicidal glasshouse test on Amaranthus retoflexus; conditions: post-emergence; 1000 g/h; evaluated after 13 days
Method in brief: as §1

[8] = tested on: Ipomoea hederacea (IPOHE); experiment: Post-emergence herbicidal glasshouse test on Ipomoea hederacea; conditions: post-emergence; 1000 g/h; evaluated after 13 days
Method in brief: as §1

[9] = tested on: Solanum nigrum (SOLNI); experiment: Pre-emergence herbicidal glasshouse test on Solanum nigrum; conditions: pre-emergence; 1000 g/h; evaluated after 13 days
Method in brief: as §1

[10] = tested on: Echinochloa crus-galli (ECHCG); experiment: Post-emergence herbicidal glasshouse test on Echinochloa crus-galli; conditions: post-emergence; 1000 g/h; evaluated after 13 days
Method in brief: as §1

[11] = tested on: Alopecurus myosuroides (ALOMY); experiment: Pre-emergence herbicidal glasshouse test on Alopecurus myosuroides; conditions: pre-emergence; 1000 g/h; evaluated after 13 days
Method in brief: as §1

[12] = tested on: Solanum nigrum (SOLNI); experiment: Post-emergence herbicidal glasshouse test on Solanum nigrum; conditions: post-emergence; 1000 g/h; evaluated after 13 days
Method in brief: as §1

SMILES | PRE Application ECHCG herbicidal damage (five point scale) [1] | PRE Application SETFA herbicidal damage (five point scale) [2] | POST Application ALOMY herbicidal damage (five point scale) [3] | POST Application SETFA herbicidal damage (five point scale) [4] | PRE Application AMARE herbicidal damage (five point scale) [5] | PRE Application IPOHE herbicidal damage (five point scale) [6] | POST Application AMARE herbicidal damage (five point scale) [7] | POST Application IPOHE herbicidal damage (five point scale) [8] | PRE Application SOLNI herbicidal damage (five point scale) [9] | POST Application ECHCG herbicidal damage (five point scale) [10] | PRE Application ALOMY herbicidal damage (five point scale) [11] | POST Application SOLNI herbicidal damage (five point scale) [12]
Cn1ncc(-c2cccnc2OCC(F)F)c(O)c1=O [Compound 4.011] | 1 (1=0-19% damage) | 1 (1=0-19% damage) | 1 (1=0-19% damage) | 1 (1=0-19% damage) | 1 (1=0-19% damage) | 1 (1=0-19% damage) | 4 (4=60-79% damage) | 3 (3=40-59% damage) | 1 (1=0-19% damage) | 1 (1=0-19% damage) | 1 (1=0-19% damage) | 5 (5=80-100% damage)
Cn1ncc(-c2ccc(C(F)(F)F)nc2Cl)c(O)c1=O [Compound 4.014] | 5 (5=80-100% damage) | 1 (1=0-19% damage) | 1 (1=0-19% damage) | 2 (2=20-39% damage) | 5 (5=80-100% damage) | 2 (2=20-39% damage) | 5 (5=80-100% damage) | 5 (5=80-100% damage) | 4 (4=60-79% damage) | 3 (3=40-59% damage) | 1 (1=0-19% damage) | 5 (5=80-100% damage)
Cn1ncc(-c2ccc(C(F)(F)F)nc2C#N)c(O)c1=O [Compound 4.015] | 1 (1=0-19% damage) | 1 (1=0-19% damage) | 1 (1=0-19% damage) | 1 (1=0-19% damage) | 1 (1=0-19% damage) | 1 (1=0-19% damage) | 1 (1=0-19% damage) | 1 (1=0-19% damage) | 1 (1=0-19% damage) | 1 (1=0-19% damage) | 1 (1=0-19% damage) | 1 (1=0-19% damage)
Cn1ncc(-c2ccc(C(F)(F)F)nc2S(=O)(=O)N2CCOCC2)c(O)c1=O [Compound 4.016] | 5 (5=80-100% damage) | 5 (5=80-100% damage) | 5 (5=80-100% damage) | 5 (5=80-100% damage) | 5 (5=80-100% damage) | 5 (5=80-100% damage) | 5 (5=80-100% damage) | 5 (5=80-100% damage) | 5 (5=80-100% damage) | 5 (5=80-100% damage) | 5 (5=80-100% damage) | 5 (5=80-100% damage)
CC(C)N(C)S(=O)(=O)c1nc(C(F)(F)F)ccc1-c1cnn(C)c(=O)c1O [Compound 4.017] | 5 (5=80-100% damage) | 4 (4=60-79% damage) | 5 (5=80-100% damage) | 5 (5=80-100% damage) | 5 (5=80-100% damage) | 5 (5=80-100% damage) | 5 (5=80-100% damage) | 5 (5=80-100% damage) | 5 (5=80-100% damage) | 5 (5=80-100% damage) | 4 (4=60-79% damage) | 5 (5=80-100% damage)
CCn1ncc(-c2cc3cccnc3nc2C(F)(F)F)c(O)c1=O [Compound 5.001] | 5 (5=80-100% damage) | 5 (5=80-100% damage) | 5 (5=80-100% damage) | 5 (5=80-100% damage) | 5 (5=80-100% damage) | 5 (5=80-100% damage) | 5 (5=80-100% damage) | 5 (5=80-100% damage) | 5 (5=80-100% damage) | 5 (5=80-100% damage) | 5 (5=80-100% damage) | 5 (5=80-100% damage)
Cc1cc(C)c2cc(-c3cnn(C)c(=O)c3O)c(C(F)(F)F)nc2n1 [Compound 5.002] | 2 (2=20-39% damage) | 1 (1=0-19% damage) | 1 (1=0-19% damage) | 2 (2=20-39% damage) | 5 (5=80-100% damage) | 3 (3=40-59% damage) | 5 (5=80-100% damage) | 5 (5=80-100% damage) | 1 (1=0-19% damage) | 3 (3=40-59% damage) | 1 (1=0-19% damage) | 5 (5=80-100% damage)
Cc1cc(-c2cnn(C)c(=O)c2O)c(=O)n(-c2ccccc2)c1 [Compound 6.001] | 1 (1=0-19% damage) | 1 (1=0-19% damage) | 3 (3=40-59% damage) | 3 (3=40-59% damage) | 1 (1=0-19% damage) | 1 (1=0-19% damage) | 5 (5=80-100% damage) | 1 (1=0-19% damage) | 1 (1=0-19% damage) | 5 (5=80-100% damage) | 1 (1=0-19% damage) | 5 (5=80-100% damage)
Cc1cc(-c2cnn(C)c(=O)c2O)c(=O)n(-c2ccsc2)c1 [Compound 6.002] | 1 (1=0-19% damage) | 1 (1=0-19% damage) | 1 (1=0-19% damage) | 1 (1=0-19% damage) | 5 (5=80-100% damage) | 2 (2=20-39% damage) | 4 (4=60-79% damage) | 2 (2=20-39% damage) | 5 (5=80-100% damage) | 1 (1=0-19% damage) | 1 (1=0-19% damage) | 3 (3=40-59% damage)
CCCCn1cc(C)cc(-c2cnn(C)c(=O)c2O)c1=O [Compound 6.003] | 1 (1=0-19% damage) | 1 (1=0-19% damage) | 2 (2=20-39% damage) | 2 (2=20-39% damage) | 1 (1=0-19% damage) | 1 (1=0-19% damage) | 4 (4=60-79% damage) | 2 (2=20-39% damage) | 1 (1=0-19% damage) | 4 (4=60-79% damage) | 1 (1=0-19% damage) | 4 (4=60-79% damage)
